Where two headings read alike, the source gives them in different places.
Tests used:
[1] = biological target: T1, human progesterone receptor-A [PRA] isoform (Homo sapiens, UniProt P06401); test: Radioligand binding with human progesterone receptor cytosol ([3H]-progesterone competition); conditions: read-out: Ki (nM) PR
T1 construct: host or cells: insect SF21 cells (baculovirus)
T1 sequence (P06401 1-769 isoform P06401-2): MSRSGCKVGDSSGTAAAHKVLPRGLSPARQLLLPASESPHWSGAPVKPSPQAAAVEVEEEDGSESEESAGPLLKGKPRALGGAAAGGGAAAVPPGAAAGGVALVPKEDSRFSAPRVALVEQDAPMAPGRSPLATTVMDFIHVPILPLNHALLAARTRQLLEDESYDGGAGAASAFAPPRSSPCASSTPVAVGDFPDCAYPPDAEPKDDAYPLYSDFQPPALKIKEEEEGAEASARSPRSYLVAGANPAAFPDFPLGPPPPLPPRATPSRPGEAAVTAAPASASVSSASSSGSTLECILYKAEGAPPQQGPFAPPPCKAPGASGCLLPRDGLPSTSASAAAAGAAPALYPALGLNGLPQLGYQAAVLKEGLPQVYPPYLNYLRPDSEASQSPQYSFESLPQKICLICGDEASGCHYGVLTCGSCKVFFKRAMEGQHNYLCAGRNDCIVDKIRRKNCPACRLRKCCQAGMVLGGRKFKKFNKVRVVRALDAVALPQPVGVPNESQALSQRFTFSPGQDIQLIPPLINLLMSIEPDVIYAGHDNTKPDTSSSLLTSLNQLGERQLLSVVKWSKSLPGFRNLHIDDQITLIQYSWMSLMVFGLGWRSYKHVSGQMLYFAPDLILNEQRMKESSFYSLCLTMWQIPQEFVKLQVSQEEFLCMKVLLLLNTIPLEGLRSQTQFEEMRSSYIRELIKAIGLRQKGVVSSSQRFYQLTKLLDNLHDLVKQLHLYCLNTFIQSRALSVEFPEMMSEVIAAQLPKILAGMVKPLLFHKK

[2] = biological target: T2, human glucocorticoid receptor-α [GRX] isoform (Homo sapiens, UniProt P04150); test: Radioligand binding with human glucocorticoid receptor cytosol ([3H]-dexamethasone competition); conditions: read-out: Ki (nM) GR
T2 construct: host or cells: insect SF21 cells (baculovirus)
T2 sequence (P04150 1-777): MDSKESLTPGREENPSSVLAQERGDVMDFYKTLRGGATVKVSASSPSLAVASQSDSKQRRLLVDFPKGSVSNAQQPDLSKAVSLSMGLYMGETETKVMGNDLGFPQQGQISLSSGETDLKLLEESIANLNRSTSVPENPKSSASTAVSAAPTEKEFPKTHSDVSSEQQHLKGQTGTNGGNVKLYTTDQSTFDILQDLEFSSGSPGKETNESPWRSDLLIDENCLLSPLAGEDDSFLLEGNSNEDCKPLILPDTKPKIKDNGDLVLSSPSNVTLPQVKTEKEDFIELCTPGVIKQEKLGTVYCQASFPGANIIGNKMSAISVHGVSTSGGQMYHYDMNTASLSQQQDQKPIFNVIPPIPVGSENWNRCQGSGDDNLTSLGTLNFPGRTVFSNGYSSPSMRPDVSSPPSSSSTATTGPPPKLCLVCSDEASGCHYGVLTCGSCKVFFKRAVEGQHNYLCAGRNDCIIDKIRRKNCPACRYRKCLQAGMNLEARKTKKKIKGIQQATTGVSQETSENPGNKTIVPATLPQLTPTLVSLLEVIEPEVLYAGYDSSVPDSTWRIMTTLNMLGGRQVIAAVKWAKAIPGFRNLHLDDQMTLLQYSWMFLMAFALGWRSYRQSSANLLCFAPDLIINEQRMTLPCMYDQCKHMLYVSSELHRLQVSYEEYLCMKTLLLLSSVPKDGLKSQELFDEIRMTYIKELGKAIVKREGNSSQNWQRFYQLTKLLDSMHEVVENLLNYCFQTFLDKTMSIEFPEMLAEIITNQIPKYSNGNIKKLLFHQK

[3] = PRA cytosol expressed in insect SF21 cells, [3H]Prog ~0.8 nM, 4° C. overnight, Ki by Cheng-Prusoff, KL ~4.5 nM
[4] = GRX cytosol expressed in insect SF21 cells, [3H]-Dex ~0.9 nM, 4° C. overnight, Ki by Cheng-Prusoff, KL ~[…]

Compound | melting point [°C] | Ki [1, 3] [nM] | Ki [2, 4] [nM] | Ki [1] [nM] | Ki [2] [nM]
C=Cc1cccc2oc(=O)c3c4c(ccc3c12)NC(C)(C)C=C4C [Example 339, 2,5-Dihydro-10-ethenyl-5-oxo-2,2,4-trimethyl-1H-[1]benzopyrano[3,4-f]quinoline] | 218 to 224 | ≥ 10000 | 112 | – | –
COc1cccc2c1-c1ccc3c(c1C(CNC(=O)OC(C)(C)C)O2)C(C)=CC(C)(C)N3 (stereo not shown) [Example 206] | 130 to 135 | ≥ 10000 | 201 | – | –
COC(=O)c1cccc2c1-c1ccc3c(c1C(c1ccccc1)O2)C(C)=CC(C)(C)N3 (stereo not shown) [Example 335, Methyl 2,5-Dihydro-5-phenyl-2,2,4-trimethyl-1H-[1]benzopyrano[3,4-f]quinoline-10-carboxylate] | 150 to 152 | ≥ 10000 | 652 | – | –
COc1cccc2c1-c1ccc3c(c1C(CC=C1CCCCC1)O2)C(C)=CC(C)(C)N3 (stereo not shown) [Example 187, 2,5-Dihydro-10-methoxy-5-(2-cyclohexylidenylethyl)-2,2,4-trimethyl-1H-[1]benzopyrano[3,4-f]quinoline] | 130 to 135 | 3900 | 46 | – | –
C=Cc1cccc2c1-c1ccc3c(c1C(C1(C)CC=CCC1)O2)C(C)=CC(C)(C)N3 (stereo not shown) [Example 341, 2,5-Dihydro-10-ethenyl-5-[1-methyl-3-cyclohexenyl]-2,2,4-trimethyl-1H-[1]benzopyrano[3,4-f]quinoline] | 198 to 201 | – | – | – | –
COc1cccc2c1-c1ccc3c(c1C(/C=C/COC(=O)N(C)C)O2)C(C)=CC(C)(C)N3 (stereo not shown) [Example 182, (E) 2,5-Dihydro-10-methoxy-5-(3-(N,N-dimethylaminocarbonyloxy)-1-propenyl)-2,2,4-trimethyl-1H-[1]benzopyrano[3,4-f]quinoline] | – | ≥ 10000 | 23 | – | –
COc1c(O)ccc2c1-c1ccc3c(c1C(=Cc1ccccc1)O2)C(C)=CC(C)(C)N3 [Example 430, 9-Hydroxy-10-methoxy-5-(phenylmethylene)-2,2,4-trimethyl-1H-2,5-dihydro-[1]benzopyrano[3,4-f]quinoline] | – | 281 | 4.8 | – | –
C=C=CC1Oc2ccc(O)c(OC)c2-c2ccc3c(c21)C(C)=CC(C)(C)N3 (stereo not shown) [Example 389, 2,5-Dihydro-9-hydroxy-10-methoxy-2,2,4-trimethyl-5-allenyl-1H-[1]benzopyrano[3,4-f]quinoline] | – | 27.5 | 0.58 | – | –
COCOc1cccc(C2Oc3cccc(OC)c3-c3ccc4c(c32)C(C)=CC(C)(C)N4)c1 (stereo not shown) [Example 99] | – | ≥ 10000 | 3.6 | – | –
CC1=CC(C)(C)Nc2ccc3c(c21)C(C1CCCC1)Oc1ccc(O)c(Cl)c1-3 (single isomer, unassigned; (-)) [Example 422, (−)2,5-Dihydro-9-hydroxy-10-chloro-2,2,4-trimethyl-5-cyclopentyl-1H-[1]benzopyrano[3,4-f]quinoline] | – | 2.9 | 0.28 | – | –
CCC1Oc2cccc(OC)c2-c2ccc3c(c21)C(C)=CC(C)(C)N3 (stereo not shown) [Example 60, 5-Ethyl-2,5-dihydro-10-methoxy-2,2,4-trimethyl-1H-[1]benzopyrano[3,4-f]quinoline] | – | 10500 | 14 | – | –
COc1cccc2c1-c1ccc3c(c1C(c1cccc(C4=NC(C)(C)CO4)c1)O2)C(C)=CC(C)(C)N3 (stereo not shown) [Example 106] | – | > 10000 | 62 | – | –
COC(=O)Oc1cccc(C2Oc3cccc(OC)c3-c3ccc4c(c32)C(C)=CC(C)(C)N4)c1 (stereo not shown) [Example 84, [3-(2,5-Dihydro-10-methoxy-2,2,4-trimethyl-1H-[1]benzopyrano[3,4-f]quinolin-5-yl)phenyl]methylcarbonate] | – | – | – | ≥ 10000 | 17.3
CCOc1cccc2c1-c1ccc3c(c1C(c1cc(Cl)cc(Cl)c1)O2)C(C)=CC(C)(C)N3 (stereo not shown) [Example 79, 5-(3,5-Dichlorophenyl)-10-ethoxy-2,5-dihydro-2,2,4-trimethyl-1H-[1]benzopyrano[3,4-f]quinoline] | – | ≥ 10000 | 19.2 | – | –

Source: patent US6506766B1 (Abbott Laboratories, priority 1998, dated 2003)
